# Results published in ChEMBL document CHEMBL1201862, “PubChem BioAssay data set” (2004).
# Active and inactive are the calls of the source.
# How the values were obtained:
# [1] = biological target: DNA dC->dU-editing enzyme APOBEC-3G (Homo sapiens, UniProt Q9HC16); format: functional;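 note: Dose-response counterscreen measuring inhibition of APOBEC3G DNA deaminase activity, run while confirming APOBEC3A inhibitors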
# [2] = biological target: DNA dC->dU-editing enzyme APOBEC-3A (Homo sapiens, UniProt P31941); assay: Dose Response confirmation of small molecule APOBEC3A DNA Deaminase Inhibitors via a fluorescence-based single-stranded DNA deaminase assay. [Related pubchem assays (depositor defined):AID493011, AID493024]; format: functional
# Sequence of DNA dC->dU-editing enzyme APOBEC-3A (P31941 whole entry): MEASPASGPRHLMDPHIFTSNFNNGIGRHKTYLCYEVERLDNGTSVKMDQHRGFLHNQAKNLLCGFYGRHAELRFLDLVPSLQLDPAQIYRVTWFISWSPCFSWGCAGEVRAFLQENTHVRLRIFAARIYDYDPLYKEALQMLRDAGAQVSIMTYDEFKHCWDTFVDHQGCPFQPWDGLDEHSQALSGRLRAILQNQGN
# [3] = biological target: T1, Short transient receptor potential channel 4 (Mus musculus, UniProt Q9QUQ5); assay: block of DAMGO-driven TRPC4 calcium entry – cell-based, HEK293 TRPC4/mu-opioid, Fluo-4 calcium, dose response (AID 434942); format: functional;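 note: potency of inhibitors blocking the TRPC4 calcium response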
# T1 sequence (Q9QUQ5 whole entry): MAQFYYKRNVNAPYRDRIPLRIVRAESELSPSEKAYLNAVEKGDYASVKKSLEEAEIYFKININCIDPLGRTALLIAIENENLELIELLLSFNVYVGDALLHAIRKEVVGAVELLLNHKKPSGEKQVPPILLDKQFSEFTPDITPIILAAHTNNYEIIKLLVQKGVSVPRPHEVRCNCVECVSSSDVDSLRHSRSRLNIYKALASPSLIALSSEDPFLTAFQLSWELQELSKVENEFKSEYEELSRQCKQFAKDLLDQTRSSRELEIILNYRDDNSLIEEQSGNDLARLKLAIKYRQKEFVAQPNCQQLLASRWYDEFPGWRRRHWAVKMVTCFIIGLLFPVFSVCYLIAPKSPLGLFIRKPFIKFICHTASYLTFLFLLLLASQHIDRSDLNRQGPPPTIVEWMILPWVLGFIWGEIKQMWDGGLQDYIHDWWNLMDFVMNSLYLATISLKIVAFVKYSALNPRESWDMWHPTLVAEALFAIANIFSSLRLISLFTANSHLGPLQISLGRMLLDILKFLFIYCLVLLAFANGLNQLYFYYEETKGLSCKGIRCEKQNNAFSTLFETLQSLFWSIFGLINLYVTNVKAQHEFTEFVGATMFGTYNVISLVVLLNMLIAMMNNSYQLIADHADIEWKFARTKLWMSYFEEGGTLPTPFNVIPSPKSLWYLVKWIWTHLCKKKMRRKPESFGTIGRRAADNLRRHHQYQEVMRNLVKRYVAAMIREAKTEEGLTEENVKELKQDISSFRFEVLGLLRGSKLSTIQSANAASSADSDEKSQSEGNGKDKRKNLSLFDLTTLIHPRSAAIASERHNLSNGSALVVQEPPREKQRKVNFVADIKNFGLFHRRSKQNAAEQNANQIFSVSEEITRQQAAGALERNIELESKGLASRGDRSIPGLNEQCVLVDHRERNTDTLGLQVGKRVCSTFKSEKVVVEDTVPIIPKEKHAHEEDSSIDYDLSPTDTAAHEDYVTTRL
# Cytochrome P450 2C9 = Cytochrome P450 2C9 (Homo sapiens, UniProt P11712)
# Sequence of Cytochrome P450 2C9 (P11712 whole entry): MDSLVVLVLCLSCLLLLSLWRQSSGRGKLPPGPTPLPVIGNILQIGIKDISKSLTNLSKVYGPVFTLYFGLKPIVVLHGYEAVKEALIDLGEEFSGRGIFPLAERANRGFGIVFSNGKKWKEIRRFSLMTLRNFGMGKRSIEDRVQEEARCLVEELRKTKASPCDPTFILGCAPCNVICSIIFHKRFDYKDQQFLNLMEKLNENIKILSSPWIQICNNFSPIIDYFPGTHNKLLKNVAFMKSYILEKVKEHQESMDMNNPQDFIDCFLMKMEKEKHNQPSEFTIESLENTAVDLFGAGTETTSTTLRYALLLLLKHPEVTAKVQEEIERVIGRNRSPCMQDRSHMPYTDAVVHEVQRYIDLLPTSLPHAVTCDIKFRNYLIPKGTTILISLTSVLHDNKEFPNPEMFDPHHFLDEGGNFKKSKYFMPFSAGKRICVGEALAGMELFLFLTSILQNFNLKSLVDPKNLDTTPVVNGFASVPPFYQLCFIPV
# [4] = NIH3T3 cell viability loss – ATP luminescence, mouse fibroblasts, counter-screen, dose response (AID 2010); format: functional, cell-based;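 note: cells exposed to compound for about 90 hours before reading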
# [5] = HEK-293T viability loss after treatment – luminescence, T-cell screen hits, cytotoxicity control for TCR NF-kB inhibitor project, dose response (AID 489026); format: functional, cell-based;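 note: cells exposed to compound about 14 hours before the viability readout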
# [6] = Trypanosoma cruzi growth suppression in host cells – NIH3T3 host cells, beta-gal luminescence, confirmation (AID 2044); format: functional, cell-based;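 note: intracellular parasites grown in NIH/3T3 mouse fibroblasts as host cells; luminescent beta-galactosidase reporter signal from transgenic T. cruzi replicating inside host cells; inhibitors lower the luminescence signal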
# [7] = Luminescence Cell-Based Dose Retest to Confirm Inhibitors of Cancer Stem Cells. [Related pubchem assays (depositor defined):AID2717, AID2721]; format: functional; conditions: Homo sapiens
# Nonstructural protein 1 = Nonstructural protein 1 (Influenza A virus, UniProt Q194T2); format: functional, Influenza A virus (A/California/07/2009(H1N1))
# Sequence of Nonstructural protein 1 (Q194T2 whole entry): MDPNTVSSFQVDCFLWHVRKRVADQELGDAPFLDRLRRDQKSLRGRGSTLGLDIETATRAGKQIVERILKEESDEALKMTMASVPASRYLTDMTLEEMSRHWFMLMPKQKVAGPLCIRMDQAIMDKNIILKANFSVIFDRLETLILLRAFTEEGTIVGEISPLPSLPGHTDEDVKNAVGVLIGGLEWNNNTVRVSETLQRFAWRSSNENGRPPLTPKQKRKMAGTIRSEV
# [8] = biological target: Dual specificity tyrosine-phosphorylation-regulated kinase 1A (Rattus norvegicus, UniProt Q63470); format: biochemical, Homo sapiens
# Protein skinhead-1 = biological target: T2, Protein skinhead-1 (Caenorhabditis elegans, UniProt P34707); format: functional
# T2 sequence (P34707 whole entry): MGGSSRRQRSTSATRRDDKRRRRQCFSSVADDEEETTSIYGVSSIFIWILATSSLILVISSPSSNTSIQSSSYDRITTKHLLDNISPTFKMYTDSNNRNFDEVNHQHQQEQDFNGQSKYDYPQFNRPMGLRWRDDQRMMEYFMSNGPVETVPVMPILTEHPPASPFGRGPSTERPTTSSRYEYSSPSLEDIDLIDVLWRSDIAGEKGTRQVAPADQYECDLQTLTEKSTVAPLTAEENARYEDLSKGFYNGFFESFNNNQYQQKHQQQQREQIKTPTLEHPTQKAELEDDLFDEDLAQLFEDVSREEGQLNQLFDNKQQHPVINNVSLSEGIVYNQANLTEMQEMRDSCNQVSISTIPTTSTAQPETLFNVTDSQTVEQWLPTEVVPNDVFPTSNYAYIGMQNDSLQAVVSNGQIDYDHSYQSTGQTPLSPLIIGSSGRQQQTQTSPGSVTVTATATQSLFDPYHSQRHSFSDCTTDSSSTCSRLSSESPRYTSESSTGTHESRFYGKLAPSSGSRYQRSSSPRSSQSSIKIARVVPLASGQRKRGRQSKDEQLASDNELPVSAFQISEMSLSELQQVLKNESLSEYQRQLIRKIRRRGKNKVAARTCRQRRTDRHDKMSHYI
# [9] = biological target: T3, Carboxy-terminal domain RNA polymerase II polypeptide A small phosphatase 1 (Homo sapiens, UniProt Q9GZU7); assay: CTDSP1 inhibitors, concentration-response, biochemical, absorbance readout, ultra-high-throughput screen actives (AID 540297); format: functional
# T3 sequence (Q9GZU7 whole entry): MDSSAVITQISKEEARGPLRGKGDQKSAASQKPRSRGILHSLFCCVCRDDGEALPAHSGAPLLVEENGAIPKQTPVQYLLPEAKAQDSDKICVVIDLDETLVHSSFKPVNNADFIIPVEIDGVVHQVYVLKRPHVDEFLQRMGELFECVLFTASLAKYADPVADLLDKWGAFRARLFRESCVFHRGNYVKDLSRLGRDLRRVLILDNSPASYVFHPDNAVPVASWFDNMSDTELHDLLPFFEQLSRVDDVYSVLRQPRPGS
# [10] = non-specific 3'UTR reporter inhibition in Clone20-Shn3RL – cell-based, Renilla luciferase, cherry-picked, counter-screen for Shn3 inhibitor project, dose response (AID 624133); format: functional
# [11] = biological target: Heat shock protein HSP 90-alpha (Homo sapiens, UniProt P07900); format: functional, organism-based
# [12] = reduction of Shn3 3'UTR-driven luciferase in osteoblasts – cell-based, Clone20 osteoblasts, firefly luciferase, cherry-picked, dose response (AID 624132); format: functional;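 note: firefly luciferase luminescence from reporter carrying the Shn3 3'UTR in osteoblasts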
# [13] = NIH-3T3 fibroblast cytotoxicity, dose response, cytotoxicity control, cell-based, fluorescence, Alamar Blue, secondary assay (AID 2327); format: functional;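 note: NIH-3T3 mouse fibroblasts cultured with fluconazole at 8 µg/mL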
# [14] = fluconazole-exposed Candida albicans growth modulators – fluorescence, retest, confirmation (AID 2467); format: functional, cell-based
# [15] = biological target: T4, Microphthalmia-associated transcription factor (Homo sapiens, UniProt O75030); assay: reducers of TRPM1 reporter luminescence, concentration series – cell-based, SK-MEL-5, cherry-picked, set 3, MITF inhibitor project, dose response (AID 493073); format: functional;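 note: SK-MEL-5 melanoma cells with luciferase driven by the MITF target TRPM1 promoter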
# T4 sequence (O75030 whole entry): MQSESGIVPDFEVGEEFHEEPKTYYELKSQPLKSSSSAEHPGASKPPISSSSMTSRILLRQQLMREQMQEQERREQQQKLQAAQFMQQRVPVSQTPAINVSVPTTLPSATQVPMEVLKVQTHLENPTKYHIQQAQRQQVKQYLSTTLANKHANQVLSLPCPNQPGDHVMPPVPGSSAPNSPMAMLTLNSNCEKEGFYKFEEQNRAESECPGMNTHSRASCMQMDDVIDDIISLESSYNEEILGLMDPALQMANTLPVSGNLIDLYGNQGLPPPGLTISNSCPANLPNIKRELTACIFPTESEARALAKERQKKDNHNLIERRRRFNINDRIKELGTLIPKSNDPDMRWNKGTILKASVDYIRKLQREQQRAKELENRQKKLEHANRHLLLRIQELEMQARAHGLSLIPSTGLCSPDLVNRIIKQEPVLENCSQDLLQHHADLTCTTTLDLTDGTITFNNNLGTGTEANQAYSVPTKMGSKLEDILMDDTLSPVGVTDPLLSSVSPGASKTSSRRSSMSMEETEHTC
# INS1 = assay: INS-1E survival protection against cytokine death – cell-based, luminescence, retest, dose response (AID 449756); format: functional; conditions: Rattus norvegicus;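 note: cell death triggered by IL-1 beta plus TNF-alpha plus IFN-gamma mixture; protective hits raise ATP signal compared with cytokine alone wells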
# [16] = THP-1 cell cytotoxicity, dose response, cytotoxicity control for non-replicating M. tuberculosis project (AID 489025); format: functional
# [17] = Vero E6 cell cytotoxicity, dose response, cytotoxicity control for non-replicating M. tuberculosis project, secondary assay (AID 492998); format: functional, VeroE6; conditions: Vero C1008
# cells [18] = format: functional
# cells [19] = format: functional, cell-based
# Sequence of DNA dC->dU-editing enzyme APOBEC-3G (Q9HC16 whole entry): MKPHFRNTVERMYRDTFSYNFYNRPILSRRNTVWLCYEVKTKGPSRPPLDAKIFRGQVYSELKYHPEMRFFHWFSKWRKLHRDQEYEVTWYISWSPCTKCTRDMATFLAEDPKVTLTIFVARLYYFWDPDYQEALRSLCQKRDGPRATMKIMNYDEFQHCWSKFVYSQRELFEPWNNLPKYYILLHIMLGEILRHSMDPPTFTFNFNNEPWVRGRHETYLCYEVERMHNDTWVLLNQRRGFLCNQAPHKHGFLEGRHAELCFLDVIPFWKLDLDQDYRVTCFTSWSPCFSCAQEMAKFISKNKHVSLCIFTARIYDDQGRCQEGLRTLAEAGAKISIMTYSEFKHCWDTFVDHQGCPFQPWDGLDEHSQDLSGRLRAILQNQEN
smiles,measurement,setting,value
CCSCc1nnc(SCC(=O)Nc2ccc(OC)cc2)n1C,IC50,[1],4.91 µM (active)
same,IC50,[2],3.08 µM (active)
COc1ccc(CN2CCN(Cc3ccc(C(F)(F)F)cc3)CC2)c(OC)c1,EC50,[3],2.66 µM (active)
Cc1cc2c(cc1S(N)(=O)=O)S(=O)(=O)CCC2,AC50,Cytochrome P450 2C9,inconclusive
COc1cc(Nc2ccc(C)cc2)c([N+](=O)[O-])nc1[N+](=O)[O-],EC50,[4],> 60 µM (not active)
same,IC50,[5],> 80 µM (inactive)
same,EC50,[6],3.02 µM (active)
same,AC50,[7],3.51 µM (active)
O=C(NCCN1CCOCC1)c1cc2sccc2n1Cc1ccc(Cl)cc1,IC50,Nonstructural protein 1,> 100 µM (active)
CC(=O)N(C[C@@H](C)C(=O)O)c1c(I)cc(I)c(N)c1I,AC50,Cytochrome P450 2C9,inconclusive
CCN1CCN(c2ccc(S(=O)(=O)N3CCCCC3)cc2NC(=O)/C=C/c2ccc(F)cc2)CC1,IC50,[1],7.23 µM (active)
same,IC50,[2],4.6 µM (active)
COc1ccc(N(C(=O)c2ccccc2C)S(=O)(=O)c2cccs2)cc1,IC50,[5],> 80 µM (inactive)
same,AC50,[7],0.17 µM (active)
CCC1CCCCN1Cc1nc2c(c(=O)n(C)c(=O)n2C)n1Cc1ccccc1 (stereo not drawn),EC50,[3],3.76 µM (active)
O=C(Nc1cccc2nsnc12)c1ccc2c(c1)OCO2,AC50,[8],11.7 µM (active)
CCOc1cc(/C=C2\SC(N3CCCCC3)=NC2=O)ccc1O,AC50,[8],0.678 µM (active)
CCc1noc(C)c1C(=O)NNC(=O)c1cc(OC)c(OC)c(OC)c1,IC50,[1],13.9 µM (active)
same,IC50,[2],21.3 µM (active)
CC(=O)Nc1cccc(-c2cnc3ccccc3n2)c1,AC50,[8],6.1 µM (active)
O=C(Nc1ccc(Br)cc1Cl)c1cnccn1,IC50,Protein skinhead-1,> 100 µM (inactive)
same,IC50,[9],4.67 µM (active)
N=C(Nc1nc(-c2ccccn2)cc2ccccc12)c1ccccn1,AC50,[10],< 0.26 µM (active)
same,AC50,[11],2.76 µM (active)
same,AC50,[12],< 0.26 µM (active)
same,IC50,Nonstructural protein 1,39.6 µM (active)
CCCOCc1ccc(O)c2ncccc12,EC50,[13],16.2 µM (inconclusive)
same,EC50,[4],8.03 µM (active)
same,EC50,[14],2.75 µM (active)
same,AC50,[15],15.5 µM (active)
same,AC50,INS1,3.29 µM (active)
same,EC50,[6],2.5 µM (active)
CN(C)CCCN(Cc1cc2cc3c(cc2nc1O)OCO3)C(S)=NCc1ccco1,EC50,[3],0.421 µM (active)
O=C(NCCc1ccccc1)c1cc2ncc(Br)cn2n1,IC50,[1],> 100 µM (inactive)
same,IC50,[2],12.8 µM (active)
Cc1nc([N+](=O)[O-])c(Br)n1CC(=O)c1ccc(Cl)cc1,CC50,[16],17.4 µM (active)
same,CC50,[17],13 µM (active)
same,IC50,cells [18],6.88 µM (active)
CCCCN(C(=O)Cn1ncc(Cl)c(Cl)c1=O)c1c(N)n(CC(C)C)c(=O)[nH]c1=O,IC50,[9],5.74 µM (active)
Oc1ccc2ccc3[nH]cnc3c2c1,AC50,[8],2.47 µM (active)
O=c1oc2cc([N+](=O)[O-])ccc2nc1/C=C(\O)c1cccc(Br)c1,EC50,cells [19],> 350 µM (not active)
COc1ccccc1N(C(=O)c1snc(C(N)=O)c1N)C(C(=O)NC1CCCC1)c1ccc2ncccc2c1 (stereo not drawn),EC50,[3],2.66 µM (active)
CC(=O)OC1C2CCC1C([N+]1(C)CCCCC1)CC2 (stereo not drawn),IC50,[1],3.15 µM (active)
same,IC50,[9],4.51 µM (active)
same,IC50,[2],2.69 µM (active)
CCN(CC)CC(=O)Nc1ccc(Cl)cc1C(=O)c1ccccc1,EC50,[3],2.37 µM (active)
Cc1c(N/N=C2/C(=O)NC(=O)N(Cc3ccccc3)C2=O)c(=O)n(-c2ccccc2)n1C,IC50,Nonstructural protein 1,3.31 µM (active)
O=C(N/N=C/c1cc([N+](=O)[O-])ccc1O)C1CCCCC1,CC50,[16],21.4 µM (active)
same,CC50,[17],> 20 µM (active)
same,IC50,cells [18],17.9 µM (active)
O=[N+]([O-])c1ccccc1/C=C/C=N/Nc1nc(N2CCCCC2)nc(N2CCCCC2)n1,IC50,[1],0.814 µM (active)
same,IC50,[2],1.14 µM (active)
Cc1ccc(-c2cc(C(=O)N/N=C/c3ccc(Cl)cc3)[nH]n2)o1,IC50,[9],9.23 µM (active)
